# Laboratory results taken from patent publication US20180186796A1, “COMPOUNDS AND USES THEREOF” (LEAD DISCOVERY SIENA S.R.L., priority 2014, published 2018).
# Like-named read-outs stand apart in the source and are kept apart here.
# How the values were obtained:
# hBMEC endothelial cells = experiment: Sprouting assay; type: cell-based; conditions: 0.5 μM and 1 μM, 24 h
# Experimental: The brain microvascular endothelial cell line hBMEC was purchased from ScienCell Research Laboratory (Carlsbad, Calif., USA). HBMEC cells were suspended in culture medium containing 20% methylcellulose, seeded at a density of 1000 cells/well, into nonadhesive 96 well plate and cultured at 37° C. (5% CO2, 100% humidity). Under these conditions, suspended endothelial cells (EC) form spontaneously within 4 h a single cell aggregate known as spheroid. Spheroids were harvested within 24 h and used for in gel sprouting angiogenesis experiments. Briefly, spheroids were seeded in micro-slides coated with Matrigel and images were observed after 24 h, captured by an inverted microscope and analysed with the NIH Image J analysis system. For statistical analysis, number of sprouts per spheroid, with a minimum of 10 spheroids for each treatment, was considered.
# U251 cells = experiment: Proliferation assay on U251 cells; type: cell-based, human
# Experimental: U87 and U251 cells were purchased from European Collection of Cell Cultures (ECACC, Salisbury, UK) and were cultured in DMEM medium supplemented with 10% Foetal Bovine Serum. In order to determine antiproliferative effect of drugs tumor cells were seeded at 2×10^5 cells/ml density and treated with compounds at indicated concentrations. The cultures were maintained at 37° C. in 5% v/v CO2 for 72 h. Cell number and viability were evaluated by Trypan blue exclusion test. Viable cells were expressed as percentage respect to cells treated with vehicle (=100%). Mean and SD values of at least three different experiments are shown.
# U87 and U251 cells were purchased from European Collection of Cell Cultures (ECACC, Salisbury, UK) and were cultured in DMEM medium supplemented with 10% Foetal Bovine Serum. In order to determine antiproliferative effect of drugs tumor cells were seeded at 2×10^5 cells/ml density and treated with compounds at indicated concentrations. The cultures were maintained at 37° C. in 5% v/v CO2 for 72 h. Cell number and viability were evaluated by Trypan blue exclusion test. Viable cells were expressed as percentage respect to untreated cells (=100%/). Mean and SD values of at least three different experiments are shown.
# human fibroblast wi38 = experiment: TGF-beta induced myofibroblast differentiation, Western blot; type: cell-based; conditions: Si306 1 μM
# Experimental: FIG. 17. Western blot analysis of PDGFR-beta and alpha-SMA expression.
# Total cell lysates were obtained by incubating cells in a lysis buffer containing 1% triton, 0.1% SDS, 2 mM CaCl2, 10 mg/ml orthovanadate, and 1× protease inhibitors cocktail (Sigma, St. Louis, […]., USA). Protein content was determined using the Protein Assay Kit 2 (Bio-Rad Laboratories, Hercules, Calif., USA). Sixty micrograms of proteins were electrophoresed in 10% SDS-polyacrylamide gel. After electrophoresis gels were placed onto Trans-Blot Turbo mini nitrocellulose transfer pack and transferred using Trans-Bolt Turbo Transfer System (Bio-Rad Laboratories, Hercules, Calif., USA). The membrane was incubated with 1 μg/ml primary antibody and then with appropriate horseradish peroxidase-conjugated secondary antibodies. Primary antibodies β-actin, PDGFR-beta, alpha-SMA were purchased from Cell Signaling Technology; Protein bands were visualized using a chemiluminescent detection system (Thermo Scientific, Rockford, Ill., USA) and signals were digitally acquired by Chemidoc XRS system (Bio-Rad Laboratories).
# Recombinant human Src = biological target: T1, Recombinant human Src (Homo sapiens, UniProt P12931); experiment: Enzymatic assay on isolated Src; type: biochemical
# T1 construct: purchased Upstate (Lake Placid, N.Y.)
# T1 sequence (P12931 whole entry): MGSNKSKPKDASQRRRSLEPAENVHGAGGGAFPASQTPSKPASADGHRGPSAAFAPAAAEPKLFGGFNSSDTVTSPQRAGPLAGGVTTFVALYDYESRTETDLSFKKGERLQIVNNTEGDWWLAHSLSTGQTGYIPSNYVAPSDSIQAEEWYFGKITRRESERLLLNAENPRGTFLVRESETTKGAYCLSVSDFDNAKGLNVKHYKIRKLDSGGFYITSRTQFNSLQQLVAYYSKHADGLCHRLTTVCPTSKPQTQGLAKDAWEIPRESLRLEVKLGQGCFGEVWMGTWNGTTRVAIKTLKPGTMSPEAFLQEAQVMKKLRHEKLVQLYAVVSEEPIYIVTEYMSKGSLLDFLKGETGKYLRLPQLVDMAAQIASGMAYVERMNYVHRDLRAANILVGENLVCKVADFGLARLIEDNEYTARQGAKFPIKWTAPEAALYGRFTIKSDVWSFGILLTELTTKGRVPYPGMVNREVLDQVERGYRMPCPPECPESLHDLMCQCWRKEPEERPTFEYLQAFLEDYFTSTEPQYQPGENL
# Text: Recombinant human Src was purchased from Upstate (Lake Placid, N.Y.).
# [1] = PAMPA, intestinal (GI) permeability; conditions: Membrane Retention, GI
compound,measurement,setting,value
"ClC(Cn1ncc2c(Nc3cccc(Br)c3)nc(SCCN3CCOCC3)nc21)c1ccccc1 (stereo not shown) [Si306, N-(3-Bromophenyl)-1-(2-chloro-2-phenylethyl)-6-[(2-morpholin-4-ylethyl)thio]-1H-pyrazolo[3,4-d]pyrimidin-4-amine]","angiogenesis, number of sprouts per spheroid",hBMEC endothelial cells,significant reduction of angiogenesis
same,reduction of the total cell number vs control,"U251 cells; U251, 5 μM, 72 h",about 50%
same,antiproliferative effect in combination with mitomycin C,"U251 cells; U251, 72 h, 1 μM Si306 plus increasing mitomycin C",synergic antiproliferative effect
same,expression of PDGFR and alpha-SMA downstream of TGF-beta,human fibroblast wi38,able to block the expression of PDGFR and alpha-SMA
same,Ki,"Recombinant human Src; mean of at least two experiments, read-out: Enzymatic Data (Ki, μM) c-Src",0.13 µM
same,Ki,Recombinant human Src; read-out: Ki c-Src,~0.1 µM
same,PAMPA GI (MR %),[1],(46.1) %
